System: E. coli DH5α
Experiment: Induced growth curves of E. coli expressing peptide-PhoA fusions in the periplasm (periplasmic in vivo display)
Type: cell-based
Conditions: peptide expressed as PhoA fusion in the periplasm, arabinose induction, OD600
Procedure: Numerous periplasmic screens have been performed for the identification of bacteriolytic peptides, encompassing more than 90 million clones. Selected clones have been sequenced and confirmed by induced growth curves, confirming that the disclosed bacteriolytic screen enriches plasmid preparations for peptides that elicit cell lysis. For example, an isolated clone is grown in fresh LB medium to early log phase. Arabinose is added to induced peptide-PhoA fusion expression, and the peptide's effect on growth is observed by measuring the cell density of the culture. Many clones of differing growth phenotypes were analyzed. Bacteriolytic peptides have predominated the extracted clones, which is to be expected given that the bacteriolytic screen was used. Peptides were recovered that had either a bacteriostatic or bactericidal effect and others that have a weakly inhibitory effect as they reduce the rate of E. coli's growth […] and may find use as precursors to actual peptide hits.
Phenotype definitions: Bacteriolytic: OD600 of culture decreases in value, correlating with a reduction in the concentration of cells. Bactriostatic/bactericidal: OD600 of culture flatlines, correlating with a complete stop in the growth of the cells and constant cell density. Weakly inhibitory OD600<0.7: Replication is slowed but not stopped. Final OD600 as culture enters stationary phase is less than 0.7. Weakly inhibitory OD600>0.7: Similar to the above, only final OD600 exceeds 0.7. Peptides have only a minor effect on growth. Non-inhibitory: No growth effect was observed versus the expression of PhoA with no peptide at its N-terminus.
After replica plating, clones were grown in LB+30 μg/ml kanamycin. When OD600˜0.15, arabinose was added to a final concentration of 0.2%. The OD600 of the culture was then measured every 30 minutes to see the effect of peptide-PhoA fusion expression on the cell. […]

| Substance | antimicrobial activity / growth phenotype after induction |
| --- | --- |
| EOD037 Pro+: EOD037 in which an alanine was replaced with a proline (IRWLPRRWRRTF; Antimicrobial peptide EOD037Pro+) | loss of antimicrobial activity |
| EOD037: inhibitory peptide from the early onset degenerate peptide library (IRWLARRWRRTF; Antimicrobial peptide EOD037) | inhibitory |
| EOD084: non-inhibitory, proline-containing peptide from the early onset degenerate peptide library (FMRLPRWWRRMQ; Antimicrobial peptide EOD084) | non-inhibitory |

From patent US9580707B2, “Peptide antimicrobials” (Wayne State University, priority 2010, dated 2017)
